The results in this text go back to US7572939B2, “Type of soluble pentacene precursor” (Academia Sinica, priority 2006, dated 2009).

Where two headings read alike, the source gives them in different places.

As a reminder, the solubility is the concentration that dissolves in the medium under given conditions.

What all share (assay type): physicochemical
A short description of data set [1]: Thermal stability by TGA (thermal gravimetric analysis) and DSC. The method, then: Thermal initiated carbonyl extrusion can be depicted by both TGA (thermal gravimetric analysis) and DSC (differential scanning calorimetry) studies. […] The decarbonylation appears at 150° C. to yield pentacene, which decomposes at about 360° C. as measured by 5% weight loss. During the extrusion, Compound (3) loses about 9% weight corresponding to the weight ratio of CO in the molecule. The pentacene thus produced is stable up to temperatures of about 350° C. Above about 350° C., Compound (3) starts to experience thermal decomposition.
General: ^1H^13C NMR spectra were obtained on a Bruker AMX-400 spectrometer. Infrared spectra were recorded on a Perkin-Elmer 682 infrared spectrophotometer. Ultraviolet-visible absorption Spectra were recorded on a HP 8453 spectrophotometer. Differential scanning calorimetry was done on a Perkin-Elmer model DSC7 instrument. Thermal gravimetric analysis was performed by a Perkin-Elmer TGA7 analyzer.

Data set [2] in a line: Solubility in organic solvents. As to the method:
Compound (3) is quite soluble in dichloromethane benzene, toluene, acetone, and tetrahydrofuran (all in the range of ˜2.0 mM i.e. about 0.7 mg/mL solvent) but is not soluble in methanol, ethanol, or acetonitrile. Compound (3) can be applied to a surface of an article by spin coating, spray coating, screen printing or ink-jet printing to form a film. The film can be dried in any of the conventional ways including air drying or with mild heating, i.e. below about 120° C. Subsequent to drying, a chemical reaction is initiated preferably by the application of heat resulting, inter alia, in the driving off of volatile components including CO.

The nature of data set [3]: Stability at ambient conditions.

`c1ccc2cc3cc4cc5ccccc5cc4cc3cc2c1` [pentacene]: in data set [1] (TGA, as measured by 5% weight loss), the decomposition temperature entry was “about 360 °C”. Moreover, the “temperature up to which stable” value in data set [1] (TGA, pentacene produced from the precursor) is “about 350 °C”.

For the molecule `O=C1C2c3cc4ccccc4cc3C1c1cc3ccccc3cc12` [Compound (3), 6,13-dihydro-6,13-methanopentacene-15-one], the solubility entry is “not soluble” in data set [2] (in methanol, ethanol or acetonitrile); around 2000 µM in data set [2] (organic solvent or mixture, in dichloromethane, benzene, toluene, acetone and tetrahydrofuran (all in this range), read-out: solubility); around 700 µg/mL in data set [2] (organic solvent or mixture, in dichloromethane, benzene, toluene, acetone and tetrahydrofuran, per mL solvent, read-out: solubility). Moreover, the “temperature above which thermal decomposition starts” value in data set [1] (TGA) was “Above 350 °C”. Moreover, the “fragmentation (decarbonylation) temperature” value in data set [1] (TGA/DSC, 10° C./min heating rate, CO extrusion to yield pentacene) stood at 150 °C. Further, the “weight loss during CO extrusion” value in data set [1] (TGA, corresponds to weight ratio of CO in the molecule) is listed as “about 9%”. Besides, the stability entry in data set [3] was “stable”.
